Measurements as given in patent publication US20250025473A1 (priority 2021, published 2025).
Like-named read-outs stand apart in the source and are kept apart here.

Key:
[1] = target: T1, AKT1 (Homo sapiens, UniProt P31749); assay: HotSpot in vitro kinase assay, AKT1; format: biochemical
T1 construct: purchased Reaction Biology Corporation

[2] = system: PLSCR1; format: cell-based, monkey; conditions: Vero, 30 minutes; drugs 10 μM each
[3] = target: ABL1 (Homo sapiens, UniProt P00519); assay: HotSpot in vitro kinase assay, ABL1; conditions: read-out: Compound IC50, ABL1; in vitro kinase activity
[4] = system: HSV-2(G); assay: Nuclear transport of VP16 (immunoblot of nuclear extracts); conditions: HaCat and primary vaginal cells, 1 h post-infection; CIMSS 10 μM, antibody 2 μg/ml
[5] = target: T2, AKT3 (Homo sapiens, UniProt Q9Y243); assay: HotSpot in vitro kinase assay, AKT3; format: biochemical
T2 construct: purchased Reaction Biology Corporation

[6] = system: Akt, PDPK1, PLCγ; assay: HSV-induced phosphorylation of Akt, PDPK1 and PLCγ (confocal, biotinylation of cell surface proteins); format: cell-based, human; conditions: 10 μM, HaCat
[7] = Parallel artificial membrane permeability assay (PAMPA); format: in vitro ADME; conditions: 100 μM
[8] = system: HSV-2(G); assay: Synchronized HSV infection (entry kinetics) plaque assay; conditions: 10 μM, HaCat, 0.5, 1, 1.5 or 2 hours post-temperature shift
[9] = system: VSV-G; format: cell-based
[10] = system: Akt, PDPK1; format: cell-based, monkey; conditions: 10 μM, Vero, VSV-S, 30 and 60 minutes
[11] = system: phosphorylated Akt (pAkt T308); format: cell-based, human
[12] = target: EGFR (Homo sapiens, UniProt P00533); assay: HotSpot in vitro kinase assay, EGFR; conditions: read-out: Compound IC50, EGFR; in vitro kinase activity
[13] = system: VSV-EBOV-GP; format: cell-based
[14] = system: PLSCR1; assay: PLSCR1 phosphorylation after HSV-2 (immunoprecipitation/Western); format: cell-based, human; conditions: 10 μM, HaCat, 30 minutes
[15] = system: HaCat cells; assay: Cell proliferation, ~50% confluent HaCat (Cell Titer 96 Aqueous One)
[16] = system: VSV-S (VSV pseudotyped with SARS-CoV-2 spike protein); format: cell-based
[17] = target: PKCd (Homo sapiens, UniProt Q05655); assay: HotSpot in vitro kinase assay, PKCd; conditions: read-out: Compound IC50, PKCd; in vitro kinase activity
[18] = target: T3, panel of 393 kinases (Homo sapiens, UniProt O00418); assay: biochemical; conditions: CIMSS 10 μM, 10 μM ATP
T3 construct: purchased Reaction Biology Corporation

[19] = target: T4, panel of 393 kinases (Homo sapiens, UniProt Q9NZJ5); assay: biochemical; conditions: CIMSS 10 μM, 10 μM ATP
T4 construct: purchased Reaction Biology Corporation

[20] = target: T5, panel of 393 kinases (Homo sapiens, UniProt Q15118); assay: biochemical; conditions: CIMSS 10 μM, 10 μM ATP
T5 construct: purchased Reaction Biology Corporation

[21] = target: T6, panel of 393 kinases (Homo sapiens, UniProt P42345); assay: biochemical; conditions: CIMSS 10 μM, 10 μM ATP
T6 construct: purchased Reaction Biology Corporation

[22] = target: T7, panel of 393 kinases (Homo sapiens, UniProt P19525); assay: biochemical; conditions: CIMSS 10 μM, 10 μM ATP
T7 construct: purchased Reaction Biology Corporation

[23] = target: T8, panel of 393 kinases (Homo sapiens, UniProt Q16654); assay: biochemical; conditions: CIMSS 10 μM, 10 μM ATP
T8 construct: purchased Reaction Biology Corporation

[24] = target: T9, panel of 393 kinases (Homo sapiens, UniProt Q13131); assay: biochemical; conditions: CIMSS 10 μM, 10 μM ATP
T9 construct: purchased Reaction Biology Corporation
T9 sequence (Q13131 whole entry): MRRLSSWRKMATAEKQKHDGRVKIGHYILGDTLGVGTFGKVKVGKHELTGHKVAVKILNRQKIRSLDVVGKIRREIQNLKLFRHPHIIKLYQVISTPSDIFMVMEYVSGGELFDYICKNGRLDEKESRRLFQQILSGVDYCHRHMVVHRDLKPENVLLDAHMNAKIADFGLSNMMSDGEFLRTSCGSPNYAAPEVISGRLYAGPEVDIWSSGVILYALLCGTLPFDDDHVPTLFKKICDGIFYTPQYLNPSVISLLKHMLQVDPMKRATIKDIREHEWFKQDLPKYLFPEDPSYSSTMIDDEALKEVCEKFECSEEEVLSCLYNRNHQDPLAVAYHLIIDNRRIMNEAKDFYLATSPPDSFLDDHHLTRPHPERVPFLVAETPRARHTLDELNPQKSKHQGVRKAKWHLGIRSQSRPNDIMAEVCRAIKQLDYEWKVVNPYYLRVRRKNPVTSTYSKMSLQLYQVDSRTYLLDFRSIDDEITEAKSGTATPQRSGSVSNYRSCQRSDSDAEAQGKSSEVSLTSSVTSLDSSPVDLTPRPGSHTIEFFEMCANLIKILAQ

T1 sequence (P31749 whole entry): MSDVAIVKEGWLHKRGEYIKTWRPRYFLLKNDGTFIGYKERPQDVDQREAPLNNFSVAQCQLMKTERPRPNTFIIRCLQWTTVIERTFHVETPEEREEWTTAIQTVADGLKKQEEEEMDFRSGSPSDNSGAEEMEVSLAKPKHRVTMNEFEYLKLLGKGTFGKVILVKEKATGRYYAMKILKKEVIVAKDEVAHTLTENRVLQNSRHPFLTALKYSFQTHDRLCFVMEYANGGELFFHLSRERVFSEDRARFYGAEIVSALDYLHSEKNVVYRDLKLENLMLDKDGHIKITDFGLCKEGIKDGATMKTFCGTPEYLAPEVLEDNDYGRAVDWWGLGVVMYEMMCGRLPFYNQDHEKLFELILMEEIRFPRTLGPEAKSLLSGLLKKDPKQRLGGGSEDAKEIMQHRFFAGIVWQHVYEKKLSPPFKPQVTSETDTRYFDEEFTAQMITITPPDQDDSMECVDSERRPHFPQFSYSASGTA
T7 sequence (P19525 whole entry): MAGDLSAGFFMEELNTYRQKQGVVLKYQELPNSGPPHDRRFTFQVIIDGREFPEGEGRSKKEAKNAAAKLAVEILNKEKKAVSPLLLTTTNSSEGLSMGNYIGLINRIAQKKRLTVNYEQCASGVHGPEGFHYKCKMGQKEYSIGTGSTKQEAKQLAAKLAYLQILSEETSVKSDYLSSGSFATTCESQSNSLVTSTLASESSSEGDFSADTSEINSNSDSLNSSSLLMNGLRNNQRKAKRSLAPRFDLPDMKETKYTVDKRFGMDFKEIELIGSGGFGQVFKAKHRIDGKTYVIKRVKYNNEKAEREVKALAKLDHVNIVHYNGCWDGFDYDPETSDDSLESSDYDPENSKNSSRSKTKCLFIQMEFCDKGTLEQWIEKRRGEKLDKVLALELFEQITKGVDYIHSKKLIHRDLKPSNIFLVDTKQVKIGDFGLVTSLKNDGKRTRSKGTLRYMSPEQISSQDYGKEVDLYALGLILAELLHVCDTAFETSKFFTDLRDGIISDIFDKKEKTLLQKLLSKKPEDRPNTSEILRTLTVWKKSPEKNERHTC
T2 sequence (Q9Y243 whole entry): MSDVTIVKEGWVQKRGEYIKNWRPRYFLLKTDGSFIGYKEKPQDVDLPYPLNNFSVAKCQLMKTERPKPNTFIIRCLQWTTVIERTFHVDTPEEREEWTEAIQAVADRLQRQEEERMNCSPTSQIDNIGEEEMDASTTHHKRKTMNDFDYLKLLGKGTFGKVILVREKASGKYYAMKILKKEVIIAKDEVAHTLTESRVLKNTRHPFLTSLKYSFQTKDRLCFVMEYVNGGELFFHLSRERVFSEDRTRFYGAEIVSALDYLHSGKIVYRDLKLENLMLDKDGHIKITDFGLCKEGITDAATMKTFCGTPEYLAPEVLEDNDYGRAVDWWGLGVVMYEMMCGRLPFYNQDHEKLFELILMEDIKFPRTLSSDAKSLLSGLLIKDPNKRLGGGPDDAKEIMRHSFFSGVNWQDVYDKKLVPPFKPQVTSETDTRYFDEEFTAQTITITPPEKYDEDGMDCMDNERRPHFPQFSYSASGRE
T4 sequence (Q9NZJ5 30-1116): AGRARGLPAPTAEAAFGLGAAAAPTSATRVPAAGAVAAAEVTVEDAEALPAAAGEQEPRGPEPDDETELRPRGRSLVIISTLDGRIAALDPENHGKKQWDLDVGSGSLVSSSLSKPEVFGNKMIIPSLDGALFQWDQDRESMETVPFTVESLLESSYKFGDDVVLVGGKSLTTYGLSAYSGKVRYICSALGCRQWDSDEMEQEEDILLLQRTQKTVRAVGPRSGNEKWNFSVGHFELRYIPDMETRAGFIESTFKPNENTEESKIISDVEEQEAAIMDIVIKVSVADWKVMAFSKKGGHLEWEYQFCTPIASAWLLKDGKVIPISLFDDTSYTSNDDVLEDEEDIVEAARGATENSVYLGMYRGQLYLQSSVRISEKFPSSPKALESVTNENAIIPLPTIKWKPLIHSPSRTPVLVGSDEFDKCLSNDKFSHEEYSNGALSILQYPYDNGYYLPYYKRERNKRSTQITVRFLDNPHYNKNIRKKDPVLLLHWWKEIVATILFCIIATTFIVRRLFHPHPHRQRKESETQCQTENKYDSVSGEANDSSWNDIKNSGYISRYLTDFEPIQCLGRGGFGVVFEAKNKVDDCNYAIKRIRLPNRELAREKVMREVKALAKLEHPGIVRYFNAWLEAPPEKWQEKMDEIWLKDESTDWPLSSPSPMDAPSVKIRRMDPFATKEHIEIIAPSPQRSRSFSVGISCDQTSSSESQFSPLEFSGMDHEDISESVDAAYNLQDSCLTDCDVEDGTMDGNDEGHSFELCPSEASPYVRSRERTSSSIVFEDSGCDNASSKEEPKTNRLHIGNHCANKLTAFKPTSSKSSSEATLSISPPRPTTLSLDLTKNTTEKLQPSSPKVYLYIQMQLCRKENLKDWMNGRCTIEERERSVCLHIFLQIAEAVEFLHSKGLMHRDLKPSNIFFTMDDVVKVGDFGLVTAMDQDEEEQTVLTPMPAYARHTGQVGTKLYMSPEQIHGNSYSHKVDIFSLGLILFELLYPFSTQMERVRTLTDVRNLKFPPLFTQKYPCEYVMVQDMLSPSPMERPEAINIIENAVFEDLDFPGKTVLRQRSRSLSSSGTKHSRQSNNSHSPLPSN
T5 sequence (Q15118 29-436): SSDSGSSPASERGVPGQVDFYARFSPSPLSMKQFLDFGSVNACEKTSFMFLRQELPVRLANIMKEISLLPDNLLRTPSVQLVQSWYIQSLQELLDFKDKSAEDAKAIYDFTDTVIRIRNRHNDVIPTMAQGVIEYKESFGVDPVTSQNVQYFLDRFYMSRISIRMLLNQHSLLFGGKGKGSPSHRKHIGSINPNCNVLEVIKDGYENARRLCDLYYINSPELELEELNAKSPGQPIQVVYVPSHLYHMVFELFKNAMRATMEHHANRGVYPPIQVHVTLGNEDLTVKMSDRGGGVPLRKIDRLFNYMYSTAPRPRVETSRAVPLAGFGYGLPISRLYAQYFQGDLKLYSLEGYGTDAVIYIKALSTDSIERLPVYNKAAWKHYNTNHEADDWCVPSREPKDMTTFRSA
T8 sequence (Q16654 whole entry): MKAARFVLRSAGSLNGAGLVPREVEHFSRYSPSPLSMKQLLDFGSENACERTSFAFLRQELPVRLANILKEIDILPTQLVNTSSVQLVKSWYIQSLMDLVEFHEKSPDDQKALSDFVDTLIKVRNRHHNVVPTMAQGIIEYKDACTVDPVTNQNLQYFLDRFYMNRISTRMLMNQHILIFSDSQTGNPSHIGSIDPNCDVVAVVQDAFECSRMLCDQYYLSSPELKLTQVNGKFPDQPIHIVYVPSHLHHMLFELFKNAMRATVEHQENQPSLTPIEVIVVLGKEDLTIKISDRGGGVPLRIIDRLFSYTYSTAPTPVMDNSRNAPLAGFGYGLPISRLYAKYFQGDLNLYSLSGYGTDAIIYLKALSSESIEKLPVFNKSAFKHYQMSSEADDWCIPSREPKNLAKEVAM
T3 sequence (O00418 whole entry): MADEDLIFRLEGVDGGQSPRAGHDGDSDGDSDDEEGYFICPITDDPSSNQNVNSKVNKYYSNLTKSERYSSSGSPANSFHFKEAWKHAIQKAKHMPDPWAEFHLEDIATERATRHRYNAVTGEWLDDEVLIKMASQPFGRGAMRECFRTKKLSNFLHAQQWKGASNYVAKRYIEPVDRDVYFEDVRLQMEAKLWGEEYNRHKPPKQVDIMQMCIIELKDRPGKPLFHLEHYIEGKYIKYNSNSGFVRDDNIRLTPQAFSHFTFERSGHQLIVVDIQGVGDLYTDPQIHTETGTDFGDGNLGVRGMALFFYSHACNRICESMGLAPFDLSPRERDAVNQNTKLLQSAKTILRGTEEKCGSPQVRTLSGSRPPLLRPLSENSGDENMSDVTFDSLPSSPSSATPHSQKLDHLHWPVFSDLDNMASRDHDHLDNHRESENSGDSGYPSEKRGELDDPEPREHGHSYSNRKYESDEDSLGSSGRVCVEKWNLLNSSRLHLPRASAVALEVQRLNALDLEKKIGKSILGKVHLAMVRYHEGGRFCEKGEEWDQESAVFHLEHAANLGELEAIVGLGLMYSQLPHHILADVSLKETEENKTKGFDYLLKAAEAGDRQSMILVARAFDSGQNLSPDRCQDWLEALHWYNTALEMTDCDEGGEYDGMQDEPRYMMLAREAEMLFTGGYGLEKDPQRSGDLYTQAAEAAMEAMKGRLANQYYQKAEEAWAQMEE

CO[C@@H]1[C@H](N(C)C(=O)CCC(=O)NCc2cn(CCCS(=O)(=O)[O-])nn2)C[C@H]2O[C@]1(C)n1c3ccccc3c3c4c(c5c6ccccc6n2c5c31)C(=O)NC4.[Na+] [CIMSS]
fold less effective than staurosporine (IC50), Akt1 [1]: ~230 fold
IC50 ([1]; in vitro kinase activity, read-out: Compound IC50, AKT1): 461 nM
inhibition at 10 µM ([1]; read-out: inhibition of Akt1): > 75%
phosphorylation of PLSCR1 after VSV-S [2]: preserved
IC50 [3]: 143 nM
nuclear transport of VP-16 [4]: inhibited
IC50 ([5]; in vitro kinase activity, read-out: Compound IC50, AKT3): 157 nM
inhibition at 10 µM ([5]; read-out: inhibition of Akt3): > 75%
pPDPK1 and pPLCγ signal by confocal microscopy ([6]; 15 and 30 minutes following viral infection): inhibited
phosphorylation of PDPK1, PLCγ and Akt in the membrane fraction ([6]; 15 minutes of HSV exposure, biotinylation): reduced
Recover %, PAMPA [7]: 83%
viral plaque formation, synchronized infection [8]: significant reduction
VSV-G infection, percentage of GFP+ cells [9]: no effect
extracellular phosphorylation of Akt (biotinylation, pAktT308) [10]: inhibited
concentration without inhibition of intracellular Akt phosphorylation in response to insulin, relative to the parental drug [11]: 100-1000 fold
dose inhibiting intracellular Akt phosphorylation in response to insulin ([11]; HaCat, 10 μM insulin, permeabilized cells): > 100 µM
IC50 [12]: 1610 nM
VSV-EBOV-GP infection, percentage of GFP+ cells [13]: no effect
phosphorylation of PLSCR1 after HSV-2 [14]: not
lowest concentration significantly inhibiting HaCat cell growth ([15]; 24 h): no significant inhibition
lowest concentration significantly inhibiting HaCat cell growth ([15]; 72 h): 100 µM
VSV-S infection (plaques or viral yields) [16]: inhibited
VSV-S infection, percentage of GFP+ cells [16]: significantly reduced
IC50 [17]: 3.64 nM
remaining activity at 10 µM ([18]; read-out: % Enzyme Activity (relative to DMSO controls) CIMSS (10 μM) Data 1, kinase EEF2K, Data 1): 99.5%
remaining activity at 10 µM ([18]; read-out: % Enzyme Activity (relative to DMSO controls) CIMSS (10 μM) Data 2, kinase EEF2K, Data 2): 97%
remaining activity at 10 µM ([19]; read-out: % Enzyme Activity (relative to DMSO controls) CIMSS (10 μM) Data 1, kinase EIF2AK3, Data 1): 61.6%
remaining activity at 10 µM ([19]; read-out: % Enzyme Activity (relative to DMSO controls) CIMSS (10 μM) Data 2, kinase EIF2AK3, Data 2): 60.2%
remaining activity at 10 µM ([20]; read-out: % Enzyme Activity (relative to DMSO controls) CIMSS (10 μM) Data 1, kinase PDK1/PDHK1, Data 1): 97.2%
remaining activity at 10 µM ([20]; read-out: % Enzyme Activity (relative to DMSO controls) CIMSS (10 μM) Data 2, kinase PDK1/PDHK1, Data 2): 96.8%
remaining activity at 10 µM ([21]; read-out: % Enzyme Activity (relative to DMSO controls) CIMSS (10 μM) Data 1, kinase mTOR/FRAP1, Data 1): 112%
remaining activity at 10 µM ([21]; read-out: % Enzyme Activity (relative to DMSO controls) CIMSS (10 μM) Data 2, kinase mTOR/FRAP1, Data 2): 108%
remaining activity at 10 µM ([22]; read-out: % Enzyme Activity (relative to DMSO controls) CIMSS (10 μM) Data 1, kinase EIF2AK2, Data 1): 9.89%
remaining activity at 10 µM ([22]; read-out: % Enzyme Activity (relative to DMSO controls) CIMSS (10 μM) Data 2, kinase EIF2AK2, Data 2): 9.34%
remaining activity at 10 µM ([23]; read-out: % Enzyme Activity (relative to DMSO controls) CIMSS (10 μM) Data 1, kinase PDK4/PDHK4, Data 1): 93.2%
remaining activity at 10 µM ([23]; read-out: % Enzyme Activity (relative to DMSO controls) CIMSS (10 μM) Data 2, kinase PDK4/PDHK4, Data 2): 93%
remaining activity at 10 µM ([24]; read-out: % Enzyme Activity (relative to DMSO controls) CIMSS (10 μM) Data 1, kinase AMPK(A1/B1/G1), Data 1): 1.14%
remaining activity at 10 µM ([24]; read-out: % Enzyme Activity (relative to DMSO controls) CIMSS (10 μM) Data 1, kinase AMPK(A1/B1/G2), Data 1): 1.46%
remaining activity at 10 µM ([24]; read-out: % Enzyme Activity (relative to DMSO controls) CIMSS (10 μM) Data 1, kinase AMPK(A1/B1/G3), Data 1): 0.22%
remaining activity at 10 µM ([24]; read-out: % Enzyme Activity (relative to DMSO controls) CIMSS (10 μM) Data 1, kinase AMPK(A1/B2/G1), Data 1): 0.73%
remaining activity at 10 µM ([24]; read-out: % Enzyme Activity (relative to DMSO controls) CIMSS (10 μM) Data 2, kinase AMPK(A1/B1/G1), Data 2): 1.14%
remaining activity at 10 µM ([24]; read-out: % Enzyme Activity (relative to DMSO controls) CIMSS (10 μM) Data 2, kinase AMPK(A1/B1/G2), Data 2): 1.23%
remaining activity at 10 µM ([24]; read-out: % Enzyme Activity (relative to DMSO controls) CIMSS (10 μM) Data 2, kinase AMPK(A1/B1/G3), Data 2): 0.07%
remaining activity at 10 µM ([24]; read-out: % Enzyme Activity (relative to DMSO controls) CIMSS (10 μM) Data 2, kinase AMPK(A1/B2/G1), Data 2): 0.57%
